Data on 1 compound can be found in patent US9801843B2, “Self-emulsifying composition of ω3 fatty acid” (priority 2013, dated 2017).

This series is described as follows: Pharmacokinetics in beagles (Test Example 5). The format is in vivo. The settings on record: plasma EPA, male beagles fasted, oral, 600 mg EPA-E, baseline-corrected. Here is the method:
The composition of Example 14 was orally administered to 6 male beagles (at the age of 2 to 6 years with the body weight of 13 kg, 3 Marshall beagles and 3 Nosan beagles) under fasting conditions, and blood EPA concentration was evaluated. The test animals had been fasted since 18 hours or more before the administration, and each animal was administered with the composition in an amount corresponding to 600 mg of the EPA-E. Blood was collected before the administration, and 0.5, 1, 1.5, 2, 3, 4, 6, 8, and 24 hours after the administration, and plasma was separated to measure plasma EPA concentration by LC/MS/MS (method in which a sample is isolated by liquid chromatography, then subjected to mass spectrometry to conduct separation and measurement thereon). The control group was administered with the EPA-E stock solution encapsulated in a capsule. […] In the calculation of each parameter, correction was made by subtracting the blood EPA concentration before the administration from the measured blood concentration.

Usually Cmax stands for the maximum level reached in the sampled fluid or tissue. `CC/C=C\C/C=C\C/C=C\C/C=C\C/C=C\CCCC(=O)OCC` [EPA-E Stock solution, Ethyl eicosapentaenoate ester] returned an AUC0-2 of 14.4 µg·h/mL, an AUC0-24 of 188 µg·h/mL and a maximum concentration (Cmax) of 16600 ng/mL.
